test: Log P by HPLC on reversed phase columns (EEC directive 79/831 Annex V.A8); assay type: physicochemical; conditions: method [a]
Description: In the above tables, measurement of Log P values was performed according to EEC directive 79/831 Annex V.A8 by HPLC (High Performance Liquid Chromatography) on reversed phase columns with the following methods: • ^[a] Log P value is determined by measurement of LC-UV, in an acidic range, with 0.1% formic acid in water and acetonitrile as eluent (linear gradient from 10% acetonitrile to 95% acetonitrile). • ^[b] Log P value is determined by measurement of LC-UV, in a neutral range, with 0.001 molar ammonium acetate solution in water and acetonitrile as eluent (linear gradient from 10% acetonitrile to 95% acetonitrile). • ^[c] Log P value is determined by measurement of LC-UV, in an acidic range, with 0.1% phosphoric acid and acetonitrile as eluent (linear gradient from 10% acetonitrile to 95% acetonitrile). If more than one Log P value is available within the same method, all the values are given and separated by “+”. Calibration was done with straight-chain alkan2-ones (with 3 to 16 carbon atoms) with known Log P values (measurement of Log P values using retention times with linear interpolation between successive alkanones). Lambda-max-values were determined using UV-spectra from 200 nm to 400 nm and the peak values of the chromatographic signals.

Row | SMILES | LogP
1 | CCOC(=O)C(Cc1c[nH]c2ccccc12)NC(=O)c1sc(Br)c(Cl)c1C (stereo not drawn) [1.0132] | 4.11^[a]
2 | CCOC(=O)C(C)NC(=O)c1sc(Br)c(Br)c1F (stereo not drawn) [1.0133] | 3.41^[a]
3 | COC(=O)C(Cc1c[nH]cn1)NC(=O)c1sc(Br)c(Br)c1F (stereo not drawn) [1.0134] | 1.39^[a]
4 | CCOC(=O)C(COC)NC(=O)c1sc(Br)c(Br)c1F (stereo not drawn) [1.0135] | 3.46^[a]
5 | CCOC(=O)C(Cc1ccc(O)cc1)NC(=O)c1sc(Br)c(Br)c1F (stereo not drawn) [1.0136] | 3.31^[a]
6 | CCOC(=O)C(Cc1c[nH]c2ccccc12)NC(=O)c1sc(Br)c(Br)c1F (stereo not drawn) [1.0137] | 4.08^[a]
7 | CCOC(=O)C(COC)NC(=O)c1sc(Br)c(Cl)c1C (stereo not drawn) [1.0138] | 3.42^[a]
8 | CCSC(=O)C1(NC(=O)c2sc(Br)c(Br)c2I)CC1 [1.0139] | 3.96^[a]
9 | CCOC(=O)C(C)NC(=O)c1sc(Br)c(Cl)c1C (stereo not drawn) [1.0140] | 3.35^[a]
10 | CCOC(=O)CNC(=O)c1sc(Br)c(Br)c1Cl [1.0142] | 3.30^[a]
11 | CCOC(=O)CCNC(=O)c1sc(Br)c(Br)c1Cl [1.0143] | 3.53^[a]
12 | CCOC(=O)C1(NC(=O)c2sc(Br)c(Br)c2Cl)CCC1 [1.0144] | 4.27^[a]
13 | CCOC(=O)C(NC(=O)c1sc(Br)c(Br)c1Cl)C(C)C (stereo not drawn) [1.0145] | 4.92^[a]
14 | COC(=O)C(CC(F)F)NC(=O)c1sc(Br)c(Br)c1Cl (stereo not drawn) [1.0146] | 3.62^[a]
15 | CCOC(=O)C(CC(C)C)NC(=O)c1sc(Br)c(Br)c1Cl (stereo not drawn) [1.0147] | 5.19^[a]
16 | CCOC(=O)C(CCSC)NC(=O)c1sc(Br)c(Br)c1Cl (stereo not drawn) [1.0148] | 4.46^[a]
17 | CCOC(=O)C(Cc1ccccc1)NC(=O)c1sc(Br)c(Br)c1Cl (stereo not drawn) [1.0149] | 5.00^[a]
18 | COC(=O)C1(NC(=S)c2sc(Br)c(Br)c2I)CC1 [1.0150] | 3.99^[a]

Now from value to compound:

Row | LogP | SMILES
19 | 4.47^[a] | CCOC(=O)[C@@H](NC(=O)c1sc(Br)c(Br)c1F)C(C)C [1.0151]
20 | 4.47^[a] | CCOC(=O)[C@H](NC(=O)c1sc(Br)c(Br)c1F)C(C)C [1.0152]
21 | 4.55^[a] | CCOC(=O)[C@@H](Cc1ccccc1)NC(=O)c1sc(Br)c(Br)c1F [1.0153]
22 | 4.55^[a] | CCOC(=O)[C@H](Cc1ccccc1)NC(=O)c1sc(Br)c(Br)c1F [1.0154]
23 | 4.12^[a] | COC(=O)[C@H](Cc1ccccc1)NC(=O)c1sc(Br)c(Br)c1F [1.0155]
24 | 4.78^[a] | CCOC(=O)[C@@H](CC(C)C)NC(=O)c1sc(Br)c(Br)c1F [1.0156]
25 | 3.62^[a] | COC(=O)[C@@H](CCSC)NC(=O)c1sc(Br)c(Br)c1F [1.0158]
26 | 3.62^[a] | COC(=O)[C@H](CCSC)NC(=O)c1sc(Br)c(Br)c1F [1.0159]
27 | 1.94^[a] | COC(=O)[C@H](CC(N)=O)NC(=O)c1sc(Br)c(Br)c1F [1.0160]
28 | 1.98^[a] | COC(=O)[C@@H](CC(N)=O)NC(=O)c1sc(Br)c(Br)c1F [1.0161]
29 | 2.48^[a] | COC(=O)C1(NC(=O)c2cc(Cl)c(Br)s2)CC1 [1.0162]
30 | 2.76^[a] | COC(=O)C1(NC(=O)c2sc(Br)c(Cl)c2C)CC1 [1.0163]
31 | 2.51^[a] | COC(=O)C1(NC(=O)c2cc(Br)c(Cl)s2)CC1 [1.0164]
32 | 2.80^[a] | COC(=O)C1(NC(=O)c2sc(Cl)c(Br)c2C)CC1 [1.0165]
33 | 3.78^[a] | CCOC(=O)C1(NC(=O)c2sc(Br)c(Br)c2F)CCC1 [1.0166]
34 | 3.09^[a] | CCOC(=O)CN(C)C(=O)c1sc(Br)c(Br)c1F [1.0167]
35 | 2.20^[a] | Cc1c(C(=O)NC2(C(=O)O)CC2)sc(Br)c1Cl [1.0168]

Row | LogP | SMILES
36 | 2.02^[a] | O=C(NC1(C(=O)O)CC1)c1cc(Br)c(Cl)s1 [1.0169]
37 | 2.21^[a] | Cc1c(C(=O)NC2(C(=O)O)CC2)sc(Cl)c1Br [1.0170]
38 | 4.39^[a] | CCOC(=O)C(C(C)C)N(C)C(=O)c1sc(Br)c(Br)c1F (stereo not drawn) [1.0171]
39 | 2.62^[a] | O=C(NC1(C(=O)O)CCC1)c1sc(Br)c(Br)c1F [1.0172]
40 | 3.09^[a] | O=C(O)C1(NC(=S)c2sc(Br)c(Br)c2I)CC1 [1.0173]
41 | 1.94^[a] | NC(=O)C1(NC(=O)c2sc(Br)c(Br)c2F)CC1 [1.0174]
42 | 4.47^[a] | CCOC(=O)C(NC(=O)c1sc(Br)c(Br)c1F)c1ccccc1 (stereo not drawn) [1.0175]
43 | 2.70^[a] | N#CCNC(=O)c1sc(Cl)c(Br)c1Cl [1.0176]
44 | 2.85^[a] | COC(=O)CNC(=O)c1sc(Cl)c(Br)c1Cl [1.0177]
45 | 3.37^[a] | CCOC(=O)CNC(=O)c1sc(Cl)c(Br)c1Cl [1.0178]
46 | 3.54^[a] | CCOC(=O)CCNC(=O)c1sc(Cl)c(Br)c1Cl [1.0179]
47 | 3.47^[a] | CCOC(=O)C1(NC(=O)c2sc(Cl)c(Br)c2Cl)CC1 [1.0180]
48 | 3.91^[a] | COC(=O)C(NC(=O)c1sc(Cl)c(Br)c1Cl)C1CC1 (stereo not drawn) [1.0181]
49 | 4.33^[a] | CCOC(=O)C1(NC(=O)c2sc(Cl)c(Br)c2Cl)CCC1 [1.0182]
50 | 4.97^[a] | CCOC(=O)C(NC(=O)c1sc(Cl)c(Br)c1Cl)C(C)C (stereo not drawn) [1.0183]
51 | 3.64^[a] | COC(=O)C(CC(F)F)NC(=O)c1sc(Cl)c(Br)c1Cl (stereo not drawn) [1.0184]
52 | 5.20^[a] | CCOC(=O)C(CC(C)C)NC(=O)c1sc(Cl)c(Br)c1Cl (stereo not drawn) [1.0185]

same assay, conditions: method [a]; compounds of formula (I), Table 1.1

Row | LogP | SMILES
53 | 3.77^[a] | CCOC(=O)C1(NC(=O)c2sc(Br)c(I)c2C)CCC1 [1.0090]
54 | 4.37^[a] | CCOC(=O)C(NC(=O)c1sc(Br)c(I)c1C)C(C)C (stereo not drawn) [1.0091]
55 | 3.39^[a] | COC(=O)C(CC(F)F)NC(=O)c1sc(Br)c(I)c1C (stereo not drawn) [1.0092]
56 | 4.66^[a] | CCOC(=O)C(CC(C)C)NC(=O)c1sc(Br)c(I)c1C (stereo not drawn) [1.0093]
57 | 4.03^[a] | CCOC(=O)C(CCSC)NC(=O)c1sc(Br)c(I)c1C (stereo not drawn) [1.0094]
58 | 4.53^[a] | CCOC(=O)C(Cc1ccccc1)NC(=O)c1sc(Br)c(I)c1C (stereo not drawn) [1.0095]
59 | 3.02^[a] | CCOC(=O)CNC(=O)c1sc(I)c(Br)c1C [1.0096]
60 | 3.17^[a] | CCOC(=O)CCNC(=O)c1sc(I)c(Br)c1C [1.0097]
61 | 3.19^[a] | CCOC(=O)C1(NC(=O)c2sc(I)c(Br)c2C)CC1 [1.0098]
62 | 3.71^[a] | CCOC(=O)C1(NC(=O)c2sc(I)c(Br)c2C)CCC1 [1.0099]
63 | 4.30^[a] | CCOC(=O)C(NC(=O)c1sc(I)c(Br)c1C)C(C)C (stereo not drawn) [1.0100]
64 | 3.33^[a] | COC(=O)C(CC(F)F)NC(=O)c1sc(I)c(Br)c1C (stereo not drawn) [1.0101]
65 | 4.56^[a] | CCOC(=O)C(CC(C)C)NC(=O)c1sc(I)c(Br)c1C (stereo not drawn) [1.0102]
66 | 3.96^[a] | CCOC(=O)C(CCSC)NC(=O)c1sc(I)c(Br)c1C (stereo not drawn) [1.0103]
67 | 4.46^[a] | CCOC(=O)C(Cc1ccccc1)NC(=O)c1sc(I)c(Br)c1C (stereo not drawn) [1.0104]
68 | 2.58^[a] | Cc1c(C(=O)NCC#N)sc(Cl)c1Br [1.0105]
69 | 2.78^[a] | Cc1c(C(=O)NC2(C#N)CC2)sc(Cl)c1Br [1.0106]
70 | 4.53^[a] | Cc1c(C(=O)NC2(C#N)CCC2)sc(Cl)c1Br [1.0107]
71 | 3.63^[a] | Cc1c(C(=O)NC(C#N)C(C)C)sc(Cl)c1Br (stereo not drawn) [1.0108]
72 | 3.85^[a] | Cc1c(C(=O)NC(C#N)c2ccccc2)sc(Cl)c1Br (stereo not drawn) [1.0109]
73 | 3.99^[a] | Cc1c(C(=O)NC(C#N)Cc2ccccc2)sc(Cl)c1Br (stereo not drawn) [1.0110]

Row | LogP | SMILES
74 | 2.54^[a] | Cc1c(C(=O)NCC#N)sc(Br)c1Cl [1.0111]
75 | 2.75^[a] | Cc1c(C(=O)NC2(C#N)CC2)sc(Br)c1Cl [1.0112]
76 | 3.81^[a] | Cc1c(C(=O)NC(C#N)c2ccccc2)sc(Br)c1Cl (stereo not drawn) [1.0113]
77 | 3.92^[a] | Cc1c(C(=O)NC(C#N)Cc2ccccc2)sc(Br)c1Cl (stereo not drawn) [1.0114]
78 | 2.64^[a] | N#CC1(NC(=O)c2sc(Br)c(Br)c2F)CC1 [1.0115]
79 | 3.11^[a] | N#CC1(NC(=O)c2sc(Br)c(Br)c2F)CCC1 [1.0116]
80 | 3.65^[a] | N#CC(NC(=O)c1sc(Br)c(Br)c1F)c1ccccc1 (stereo not drawn) [1.0117]
81 | 3.81^[a] | N#CC(Cc1ccccc1)NC(=O)c1sc(Br)c(Br)c1F (stereo not drawn) [1.0118]
82 | 3.39^[a] | COC(=O)C(NC(=O)c1sc(Cl)c(Br)c1C)C1CC1 (stereo not drawn) [1.0119]
83 | 3.35^[a] | COC(=O)C(NC(=O)c1sc(Br)c(Cl)c1C)C1CC1 (stereo not drawn) [1.0120]
84 | 3.43^[a] | COC(=O)C(NC(=O)c1sc(Br)c(Br)c1F)C1CC1 (stereo not drawn) [1.0121]
85 | 3.37^[a] | CCOC(=O)C(C)NC(=O)c1sc(Cl)c(Br)c1C (stereo not drawn) [1.0122]
86 | 1.48^[a] | COC(=O)C(Cc1c[nH]cn1)NC(=O)c1sc(Cl)c(Br)c1C (stereo not drawn) [1.0124]
87 | 3.44^[a] | CCOC(=O)C(COC)NC(=O)c1sc(Cl)c(Br)c1C (stereo not drawn) [1.0125]
88 | 3.33^[a] | CCOC(=O)C(Cc1ccc(O)cc1)NC(=O)c1sc(Cl)c(Br)c1C (stereo not drawn) [1.0126]
89 | 1,66^[a] | COC(=O)[C@H](CCCNC(=N)N)NC(=O)c1sc(Cl)c(Br)c1C [1.0127]
90 | 4.15^[a] | CCOC(=O)C(Cc1c[nH]c2ccccc12)NC(=O)c1sc(Cl)c(Br)c1C (stereo not drawn) [1.0128]
91 | 1.47^[a] | COC(=O)C(Cc1c[nH]cn1)NC(=O)c1sc(Br)c(Cl)c1C (stereo not drawn) [1.0129]
92 | 3.29^[a] | CCOC(=O)C(Cc1ccc(O)cc1)NC(=O)c1sc(Br)c(Cl)c1C (stereo not drawn) [1.0130]
93 | 1.71^[a] | COC(=O)[C@H](CCCNC(=N)N)NC(=O)c1sc(Br)c(Cl)c1C [1.0131]

Source: patent publication US12642270B2, “Substituted thiophene carboxamides, thiophene carboxylic acids and derivatives thereof” (Bayer Aktiengesellschaft, priority 2019, dated 2026)
